Measurements from US12172983B2, “EGFR inhibitors” (Blueprint Medicines Corporation, priority 2019, dated 2024).
pIC50: −log10 of the molar value. Where two headings read alike, the source gives them in different places.

Tests used:
EGFR (L858R T790M C797S) = biological target: T1, EGFR (L858R T790M C797S) (Homo sapiens, UniProt P00533, C797S/L858R/T790M); test: Biochemical EGFR inhibition assay (Caliper mobility shift), EGFR LRTMCS mutant; settings: inhibitory activity against EGFR LRTMCS mutant; apparent IC50; read-out: Ext Enz LRTMCS
T1 construct: purchased SignalChem E10-122VG
Protocol: Reactions proceeded until between 10% to 20% total peptides were phosphorylated at room temperature (25° C.) and were terminated with 35 mM 2,2′,2″,2′″-(ethane-1,2-diyldinitrilo)tetraacetic acid (EDTA). Product was detected using the Caliper mobility shift detection method where the phosphorylated peptide (product) and substrate were electrophoretically separated and measured. Percent activity was plotted against log concentration of compound and points to generate an apparent IC50.

[1] = test system: phosphorylation of EGFR (Tyr1068) in NCI-H1975 cell line that harbors the EGFR L858R T790M mutations; test: NCI-H1975 pEGFR AlphaLISA assay; assay type: cell-based; settings: 4-5 hours incubation, read-out: Ext pEGFR H1975
Protocol: Inhibitory effects of the compounds of the disclosure were evaluated in cellular assays that measure level of intracellular phosphorylation of EGFR in NCI-H1975 cell line that harbors the EGFR L858R T790M mutations (ATCC, CRL-5908) using AlphaLISA sureFire ultra p-EGFR (Tyr1068) assay kit (PerkinElmer, ALSU-PEGFR-A50K). The NCI-H1975 cells were seeded at 12.5K/well in 22 μL into 384 well opti plate (PerkinElmer, 6007299) and adhering overnight at 37 C/5% CO2. On the next day, the test compounds and DMSO control were added into H1975 cell plate followed by incubation at 37 C/5% CO2 for 4-5 hours. The cells were then spin down in the 384-well plate and lysed with 10 μL of 1×AlphaLISA lysis buffer followed by shaking at 600 rpm for 10 minutes at room temperature. After that, 5 μL of an acceptor bead mix was added to each well followed by incubation at room temperature for 1.5-2 h in dark. Then 5 μL of a donor bead mix was added to each well followed by overnight incubation at room temperature in dark. On the next day, the plate was read at a compatible plate reader to obtain pEGFR signal. Percent of pEGFR inhibition was plotted against log concentration of compounds to generate IC50 values.

[2] = Homo sapiens, NCI-H1975, inhibition of phosphorylation of mutant EGFR in NCI-H1975 cells
[3] = inhibition of phosphorylation of mutant EGFR in NCI-H1975 cells

T1 sequence (P00533 25-1210 T790M/C797S/L858R): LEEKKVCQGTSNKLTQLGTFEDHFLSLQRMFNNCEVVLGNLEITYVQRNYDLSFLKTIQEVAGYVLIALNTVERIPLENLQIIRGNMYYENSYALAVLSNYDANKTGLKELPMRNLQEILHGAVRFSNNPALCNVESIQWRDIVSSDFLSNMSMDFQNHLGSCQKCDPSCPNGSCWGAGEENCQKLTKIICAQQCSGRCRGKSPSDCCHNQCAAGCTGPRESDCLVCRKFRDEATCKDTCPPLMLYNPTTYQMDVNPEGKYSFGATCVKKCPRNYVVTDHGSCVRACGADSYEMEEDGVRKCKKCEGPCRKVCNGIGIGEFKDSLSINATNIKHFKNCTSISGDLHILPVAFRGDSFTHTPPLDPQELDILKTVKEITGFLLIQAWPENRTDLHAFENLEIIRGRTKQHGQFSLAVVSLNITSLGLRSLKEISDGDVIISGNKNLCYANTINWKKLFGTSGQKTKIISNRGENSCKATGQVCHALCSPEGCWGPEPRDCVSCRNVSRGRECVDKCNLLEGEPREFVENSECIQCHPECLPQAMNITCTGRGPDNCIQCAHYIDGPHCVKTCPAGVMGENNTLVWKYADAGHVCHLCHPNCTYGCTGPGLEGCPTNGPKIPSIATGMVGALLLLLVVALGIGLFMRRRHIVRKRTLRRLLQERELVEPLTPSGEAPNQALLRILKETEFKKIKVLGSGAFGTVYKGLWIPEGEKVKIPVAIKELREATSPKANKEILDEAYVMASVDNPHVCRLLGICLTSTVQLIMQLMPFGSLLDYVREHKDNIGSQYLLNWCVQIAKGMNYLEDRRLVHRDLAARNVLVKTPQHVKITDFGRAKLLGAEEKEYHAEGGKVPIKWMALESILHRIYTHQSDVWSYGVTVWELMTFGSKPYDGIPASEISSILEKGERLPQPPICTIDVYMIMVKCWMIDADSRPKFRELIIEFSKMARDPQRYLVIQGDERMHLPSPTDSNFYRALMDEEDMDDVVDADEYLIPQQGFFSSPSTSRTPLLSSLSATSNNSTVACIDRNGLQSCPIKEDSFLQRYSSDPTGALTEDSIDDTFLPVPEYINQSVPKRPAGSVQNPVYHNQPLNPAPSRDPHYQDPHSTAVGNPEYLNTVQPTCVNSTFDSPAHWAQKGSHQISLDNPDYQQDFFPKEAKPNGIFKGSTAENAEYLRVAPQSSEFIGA

pIC50 (EGFR (L858R T790M C797S))	pIC50 [1, 2]	pIC50 [1, 3]	Compound
7.00 to 7.52	7.30 to 7.52	–	COCCO[C@H]1CCN(c2nccc(Nc3cc4c(C(C)C)ccc(N5CC(CS(C)(=O)=O)C5)c4cn3)n2)C[C@H]1O (racemic) [Compound 226, (3R,4S)-1-[4-[[5-isopropyl-8-[3-(methylsulfonylmethyl)azetidin-1-yl]-3-isoquinolyl]amino]pyrimidin-2-yl]-4-(2-methoxyethoxy)piperidin-3-ol and (3S,4R)-1-[4-[[5-isopropyl-8-[3-(methylsulfonylmethyl)azetidin-1-yl]-3-isoquinolyl]amino]pyrimidin-2-yl]-4-(2-methoxyethoxy)piperidin-3-ol]
7.52 to 7.70	7.30 to 7.52	–	COCCO[C@@H]1CCN(c2nccc(Nc3cc4c(C(C)C)ccc(N5CC(CS(C)(=O)=O)C5)c4cn3)n2)C[C@H]1O (racemic) [Compound 227, (3S,4S)-1-[4-[[5-isopropyl-8-[3-(methylsulfonylmethyl)azetidin-1-yl]-3-isoquinolyl]amino]pyrimidin-2-yl]-4-(2-methoxyethoxy)piperidin-3-ol or (3R,4R)-1-[4-[[5-isopropyl-8-[3-(methylsulfonylmethyl)azetidin-1-yl]-3-isoquinolyl]amino]pyrimidin-2-yl]-4-(2-methoxyethoxy)piperidin-3-ol]
≥ 7.82	7.52 to 7.70	–	CC1(C)CN(c2nccc(Nc3cc4ccnc(N5CC(CS(C)(=O)=O)C5)c4cn3)n2)C[C@@H](F)[C@H]1O (single isomer, unassigned) [Compound 6, (4S,5R)-5-fluoro-1-[4-({8-[3-(methanesulfonylmethyl)azetidin-1-yl]-2,7-naphthyridin-3-yl}amino)pyrimidin-2-yl]-3,3-dimethylpiperidin-4-ol or (4R,5S)-5-fluoro-1-[4-({8-[3-(methanesulfonylmethyl)azetidin-1-yl]-2,7-naphthyridin-3-yl}amino)pyrimidin-2-yl]-3,3-dimethylpiperidin-4-ol]
≥ 7.82	–	7.30 to 7.52	CC(C)c1cnc(N2CC(CS(C)(=O)=O)C2)c2cnc(Nc3ccnc(N4C[C@H](F)[C@@H](F)C4)n3)cc12 (single isomer, unassigned) [Compound 8, N-{2-[(3S,4S)-3,4-difluoropyrrolidin-1-yl]pyrimidin-4-yl}-8-[3-(methanesulfonylmethyl)azetidin-1-yl]-5-(propan-2-yl)-2,7-naphthyridin-3-amine or N-{2-[(3R,4R)-3,4-difluoropyrrolidin-1-yl]pyrimidin-4-yl}-8-[3-(methanesulfonylmethyl)azetidin-1-yl]-5-(propan-2-yl)-2,7-naphthyridin-3-amine]
≥ 7.82	–	7.70 to 8.00	CC(C)c1cnc(N2CC(CS(C)(=O)=O)C2)c2cnc(Nc3ccnc(N4C[C@H](F)[C@@H](F)C4)n3)cc12 (single isomer, unassigned) [Compound 9, N-{2-[(3R,4R)-3,4-difluoropyrrolidin-1-yl]pyrimidin-4-yl}-8-[3-(methanesulfonylmethyl)azetidin-1-yl]-5-(propan-2-yl)-2,7-naphthyridin-3-amine or N-{2-[(3S,4S)-3,4-difluoropyrrolidin-1-yl]pyrimidin-4-yl}-8-[3-(methanesulfonylmethyl)azetidin-1-yl]-5-(propan-2-yl)-2,7-naphthyridin-3-amine]
≥ 7.82	7.30 to 7.52	–	CC(C)c1ccc(N2CC(CS(C)(=O)=O)C2)c2cnc(Nc3ccnc(N4C[C@H]5C[C@@H]4C[C@H]5O)n3)cc12 (single isomer, unassigned) [Compound 11, (1R,4R,5R)-2-[4-({8-[3-(methanesulfonylmethyl)azetidin-1-yl]-5-(propan-2-yl)isoquinolin-3-yl}amino)pyrimidin-2-yl]-2-azabicyclo[2.2.1]heptan-5-ol or (1S,4S,5S)-2-[4-({8-[3-(methanesulfonylmethyl)azetidin-1-yl]-5-(propan-2-yl)isoquinolin-3-yl}amino)pyrimidin-2-yl]-2-azabicyclo[2.2.1]heptan-5-ol]
≥ 7.82	7.30 to 7.52	–	COC1CCN(c2nccc(Nc3cc4c(C(C)C)ccc(N5CC(CS(C)(=N)=O)C5)c4cn3)n2)CC1 (single isomer, unassigned) [Compound 15, (S)-imino((1-(5-isopropyl-3-((2-(4-methoxypiperidin-1-yl)pyrimidin-4-yl)amino)isoquinolin-8-yl)azetidin-3-yl)methyl)(methyl)-λ^6-sulfanone or (R)-imino((1-(5-isopropyl-3-((2-(4-methoxypiperidin-1-yl)pyrimidin-4-yl)amino)isoquinolin-8-yl)azetidin-3-yl)methyl)(methyl)-λ^6-sulfanone]
≥ 7.82	≥ 8.00	–	CC(C)c1ccc(N2CC(CS(C)(=O)=O)C2)c2cnc(Nc3ccnc(N4CC[C@H](O)[C@@H](C)C4)n3)cc12 (single isomer, unassigned) [Compound 18, (3S,4S)-1-[4-({8-[3-(methanesulfonylmethyl)azetidin-1-yl]-5-(propan-2-yl)isoquinolin-3-yl}amino)pyrimidin-2-yl]-3-methylpiperidin-4-ol or (3R,4R)-1-[4-({8-[3-(methanesulfonylmethyl)azetidin-1-yl]-5-(propan-2-yl)isoquinolin-3-yl}amino)pyrimidin-2-yl]-3-methylpiperidin-4-ol]
7.70 to 7.82	–	7.70 to 8.00	CC(C)c1ccc(N2CC(CS(C)(=O)=O)C2)c2cnc(Nc3ccnc(N4CC[C@H](O)[C@H](C)C4)n3)cc12 (single isomer, unassigned) [Compound 19, (3S,4R)-1-[4-({8-[3-(methanesulfonylmethyl)azetidin-1-yl]-5-(propan-2-yl)isoquinolin-3-yl}amino)pyrimidin-2-yl]-3-methylpiperidin-4-ol or (3R,4S)-1-[4-({8-1,3-(methanesulfonylmethyl)azetidin-1-yl]-5-(propan-2-yl)isoquinolin-3-yl}amino)pyrimidin-2-yl]-3-methylpiperidin-4-ol]
7.70 to 7.82	–	7.30 to 7.52	CC(C)c1ccc(N2CC(CS(C)(=O)=O)C2)c2cnc(Nc3ccnc(N4CC[C@H](O)[C@H](C)C4)n3)cc12 (single isomer, unassigned) [Compound 20, (3R,4S)-1-[4-({8-[3-(methanesulfonylmethyl)azetidin-1-yl]-5-(propan-2-yl)isoquinolin-3-yl}amino)pyrimidin-2-yl]-3-methylpiperidin-4-ol or (3S,4R)-1-[4-({8-[3-(methanesulfonylmethyl)azetidin-1-yl]-5-(propan-2-yl)isoquinolin-3-yl}amino)pyrimidin-2-yl]-3-methylpiperidin-4-ol]
≥ 7.82	7.52 to 7.70	–	CC(C)c1ccc(N2CC(CS(C)(=O)=O)C2)c2cnc(Nc3ccnc(N4CC[C@@H](F)[C@H](O)C4)n3)cc12 (single isomer, unassigned) [Compound 24, (3S,4S)-4-fluoro-1-[4-({8-[3-(methanesulfonylmethyl)azetidin-1-yl]-5-(propan-2-yl)isoquinolin-3-yl}amino)pyrimidin-2-yl]piperidin-3-ol or (3R,4R)-4-fluoro-1-[4-({8-[3-(methanesulfonylmethyl)azetidin-1-yl]-5-(propan-2-yl)isoquinolin-3-yl}amino)pyrimidin-2-yl]piperidin-3-ol]
≥ 7.82	7.30 to 7.52	–	CCS(=O)(=O)CC1CN(c2ccc(C)c3cc(Nc4ccnc(N5CC[C@@H](O)[C@@](C)(F)C5)n4)ncc23)C1 (single isomer, unassigned) [Compound 25]
≥ 7.82	≥ 8.00	–	CC(C)c1ccc(N2CC(CS(C)(=O)=O)C2)c2cnc(Nc3ccnc(N4CC[C@@H](F)[C@@H](O)C4)n3)cc12 (single isomer, unassigned) [Compound 26, (3R,4S)-4-fluoro-1-[4-({8-[3-(methanesulfonylmethyl)azetidin-1-yl]-5-(propan-2-yl)isoquinolin-3-yl}amino)pyrimidin-2-yl]piperidin-3-ol or (3S,4R)-4-fluoro-1-[4-({8-[3-(methanesulfonylmethyl)azetidin-1-yl]-5-(propan-2-yl)isoquinolin-3-yl}amino)pyrimidin-2-yl]piperidin-3-ol]
≥ 7.82	7.70 to 8.00	–	CCS(=O)(=O)CC1CN(c2cccc3cc(Nc4ccnc(N5C[C@H](F)[C@H](O)C(C)(C)C5)n4)ncc23)C1 (single isomer, unassigned) [Compound 27, (4S,5R)-1-{4-[(8-{3-[(ethanesulfonyl)methyl]azetidin-1-yl}isoquinolin-3-yl)amino]pyrimidin-2-yl}-5-fluoro-3,3-dimethylpiperidin-4-ol or (4R,5S)-1-{4-[(8-{3-[(ethanesulfonyl)methyl]azetidin-1-yl}isoquinolin-3-yl)amino]pyrimidin-2-yl}-5-fluoro-3,3-dimethylpiperidin-4-ol]
